# Measured values from patent US8158811B2, “Unsaturated fatty hydroxy acid derivatives and the dermocosmetologic use thereof” (Pierre Fabre Dermo-Cosmetique, priority 2005, dated 2012).
# Assays:
# [1] = molecular target: T1, PAR-2 receptors (Homo sapiens, UniProt P55085); test: calcium flux induced by trypsin stimulation of PAR-2 receptors in HaCaT keratinocytes (Fluo-4/AM); type: cell-based; conditions: trypsin 10 nM
# T1 construct: PAR-2 receptors for trypsin present in human keratinocytes from the HaCaT line; endogenous in cells; host or cells: HaCaT human keratinocytes
# T1 sequence (P55085 26-397): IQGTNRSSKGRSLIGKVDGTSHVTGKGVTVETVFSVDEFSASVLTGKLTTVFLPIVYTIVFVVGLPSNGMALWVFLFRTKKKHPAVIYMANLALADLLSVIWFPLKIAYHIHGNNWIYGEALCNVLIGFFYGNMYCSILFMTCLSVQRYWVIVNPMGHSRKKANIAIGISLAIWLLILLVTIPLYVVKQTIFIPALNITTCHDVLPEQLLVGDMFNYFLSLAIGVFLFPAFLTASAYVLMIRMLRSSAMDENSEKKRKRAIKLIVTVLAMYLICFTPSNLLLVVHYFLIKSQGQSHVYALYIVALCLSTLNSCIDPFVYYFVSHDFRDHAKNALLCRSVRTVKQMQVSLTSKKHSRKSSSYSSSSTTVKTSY
# Description: We therefore considered evaluating anti-PAR-2 activity of hydroxyl acid derivatives of formula I on the influx of intracellular calcium induced after specific stimulation by PAR-2 receptors for trypsin present in human keratinocytes from the HaCaT line.
# This technique is based on the use of an esterified fluorescent probe by an AM group which facilitates its penetration by passive diffusion into the cell. The probe used is Fluo-4/AM. Only the de-esterified form bound to the calcium ion is excitable in fluorescence (at 485 nm) and emits at 535 nm.
# In vitro, at the cell level, specific stimulation of the PAR-2 receptors by trypsin leads to mobilisation of intra and extracellular calcium detected with the aid of the fluorescent probe.
# [2] = system: murine melanome cell line B16-F10; test: melanin synthesis, colorimetric assay, basal and after α-MSH; type: cell-based; conditions: basal situation, 30 μg/ml
# Procedure: The modulating effect of unsaturated fatty hydroxy acid derivatives on melanogenesis was analysed. To do this, measurement of melanin synthesis by colorimetric assay was performed on a murine melanome cell line: line B16-F10.
# The effect of products was investigated in a basal situation and after stimulation by α-MSH in order to determine depigmenting capacity.
# Levels of extracellular and intracellular melanin were measured by spectrophotometry at a wavelength of 405 nm according to the protocol described by Anob et al., 1999. The amount of pigment was determined using a standard melanin range and analysis on Microwin software (Berthold Biotechnologies). A total protein assay was carried out for intracellular melanin samples by means of the BCA-Copper method at 540 nm. The standard range was made up using standard protein BSA (Bovine Serum Albumin).
% inhibition ([1]; 10 μg/ml) [%],% stimulation ([1]; 10 μg/ml) [%],% inhibition ([1]; 30 μg/ml) [%],% stimulation ([1]; 30 μg/ml) [%],% inhibition ([1]; 100 μg/ml) [%],% stimulation ([1]; 100 μg/ml) [%],% inhibition ([1]; 0.1 μg/ml) [%],% stimulation ([1]; 0.1 μg/ml) [%],% inhibition ([1]; 0.3 μg/ml) [%],% stimulation ([1]; 0.3 μg/ml) [%],% inhibition ([1]; 1 μg/ml) [%],% stimulation ([1]; 1 μg/ml) [%],% inhibition ([1]; 3 μg/ml) [%],% stimulation ([1]; 3 μg/ml) [%],Compound,inhibition of melanin synthesis [2] [%]
−17,15.33,−4,14.10,39,9.84,,,,,,,,,"O=C(O)/C=C/CCCCCCCCCCCO [n=10, R=H, Rn=H, R1=H, 14-hydroxy-tetradec-2t-enoic acid]",15
42,9.55,,,,,−1,13.78,6,13.06,9,12.74,7,12.97,"O=C(O)C(F)=CCCCCCCCCCCCCCCO [n=13, R=H, Rn=H, R1=F, 17-hydroxy-heptadec-2-fluoro-2-enoic acid]",
